Assay results: patent US6849607B2, “Galectin recognized photosensitizers for photodynamic therapy” (Health Research, Inc., priority 2001, dated 2005)

Experiments:
[1] = target: Gal-1 (Homo sapiens, UniProt P09382); experiment: Gal-1 inhibition binding, indirect ELISA (Gal-1-HRP conjugate on asialofetuin-coated wells)
Method: Cell. Biochem., 43, 43-57, 1990) to eliminate the thiol requirement for retention of carbohydrate-binding activity. Coupling of alkylated galaptin to Horseradish peroxidase (HRP) was carried out by a two-step glutaraldehyde procedure as described by Engvall (Engvall E., Enzyme Immunoassay ELISA and EMIT, Methods in Enzymology, 70, 419-439, 1980). The galactin-peroxidase conjugate was prepared in 50% glycerol-1% BSA and stored at -20° C. until use. The binding of the Gal-1 to photosensitizers with and without the galactose moiety was measured by an indirect ELISA method as described by Chen et al. […] The microtiter wells (Dynatech Laboratories, Chantilly, Va.) were coated with 2 μg asial fetuin (Sigma) in 100 μl of 0.1M sodium carbonate, 0.2% NaN3, pH 9.6 at 37° C. for 3h. The plates were tightly covered with parafilm and stored at 4° C. for use within three weeks. The optimal dilution for Gal-1HRP conjugate was determined by checker-board titration. For studying the effect of saccharides and their conjugates, 60 μl aliquots of diluted Gal-1-HRP conjugate containing 1.4 μg of Gal-1 were mixed separately in duplicate with 60 μl dilute buffer as well as serially diluted test compounds and incubated for 1 h at 37° C. A 100 μl aliquot was transferred to the microtiter wells, which had been coated with […] Fetuin, blocked and washed. The plates were then incubated for 1 h at 37° C. followed by color development with ABTS (Kirkegaard & Perry lab. Gaithersburg, Md.) and reading at 405 nm on an ELISA reader.

[2] = test system: Molt-4 human leukemic T-cells; experiment: In vitro photosensitizing efficacy in Molt-4 cells (MTT); type: cell-based; conditions: for effect of the free saccharide on PDT activity of the conjugate: Molt-4 cells incubated with galactose or lactose at various concentrations (0-100 μM)
Method: Both cell lines are known to have some expression for Galectin-1 ([…]., Baum, L. G. and Brewer, C. F., Multivalent Protein-carbohydrate Interactions. A New […] for Super Molecular Assembly and Signal Transduction, Biochemistry, 40:3009-3015, 2001). The Molt-4 cells were grown in RPMI 1640 5% FCS (Fetal calf serum) in 100% humidity with 5% CO2. Cells were transferred to phenol red free (PRF) RPMI 1640 media with 1% FCS and plated at 2.5×10^4 cells/well. After 3 hours incubation in the dark, the cells were washed once with PBS and re-suspended in prf RPMI 1640 with 1% FCS. These cells were then illuminated with a […] Quartz Halogen Lamp with IR and bandpass dichroic filters to allow light between 400 nm-700 nm, at a dose rate of 16 mW/cm^2 at 695 nm. The RIF tumor cells were grown in alpha-DMEM with 10% fetal calf serum, penicillin and streptomycin. Cells were maintained in 5% CO2, 95% air and 100% humidity. […] After overnight incubation to allow the cells to attach the photosensitizers 14 were individually added at variable concentrations. After a 3 hr incubation in the dark at 37° C., the cells were washed once with PBS, then irradiated with the same light source as above (Molt-4 procedure), and the optimal cell kill was obtained at a concentration of 1.0 μM. After PDT the cells were washed once and placed in complete media and incubated for 48 hrs. […] Louis, Mo.) was added to each well (Kessel, D., Luo, Y., Photodynamic Therapy: A Mitochondrial Inducer of Apoptosis, Cell Death Differ. 6:28-35, 1999; MacDonald, I., Morgan, […]., Litchfield, D. J. Dougherty, T. J., Subcellular Localization Patterns and their Relationship to Photodynamic Activity of Pyropheophorbide-a Derivatives, Photochem. Photobiol., 70, 789-997, 1999). After 4 hr incubation at 37° C. the MTT+media were removed and 100 μl DMSO was added to solubilize the formazin crystals. The 96-well plate was read on a microtiter plate reader (Miles Inc. Titertek Multiscan Plus MK II) at an absorbance of 560 nm. The results were plotted as percent survival of the corresponding dark (drug no light) control for each compound tested. Each data point represents the mean from 3 separate experiments, and the error bars are the standard deviation. Each experiment was done with 5 replicate wells. […] The cells were then washed once with phosphate buffer saline (PBS), carbohydrate conjugates were then added, and the cells were again incubated for an additional 3 hrs. After treating with light, the cells were re-suspended in fresh media and incubated for 48 hrs. MTT was added to the cells and incubated for an additional 4 hrs. Dimethylsulfoxide (100 μl) was then added to each well to dissolve the formazin crystals. The plates were read on a 96 well plate reader at an absorbance of 560 nm. The data are in replicates of 6 wells and are normalized to control cells (light, no drug). In another set of experiments, a similar procedure was followed, except, the cells were not washed before the light treatment. […] Louis, Mo.) was added to the cells and incubated for an additional 4 hrs. Dimethylsulfoxide (100 μl) was then added to each well to dissolve the formazin crystals. The plates were read on a 96 well plate reader (Miles Inc. Titertek Multiscan Plus MK II) at an absorbance of 560 nm. The data are in replicates of 6 wells and are normalized to control cells (light, no drug).

[3] = test system: radiation induced fibrosarcoma (RIF) tumor cell; experiment: In vitro photosensitizing activity in RIF tumor cells (MTT); type: cell-based; conditions: 2.0 μM, light dose of 4 J/cm2
Method: Both cell lines are known to have some expression for Galectin-1 (Sacchettini, J. C., Baum, L. G. and Brewer, C. F., Multivalent Protein-carbohydrate Interactions. A New Paradiagm for Super Molecular Assembly and Signal Transduction, Biochemistry, 40:3009-3015, 2001). The Molt-4 cells were grown in RPMI 1640 5% FCS (Fetal calf serum) in 100% humidity with 5% CO2. Cells were transferred to phenol red free (PRF) RPMI 1640 media with 1% FCS and plated at 2.5×10^4 cells/well. After 3 hours incubation in the dark, the cells were washed once with PBS and re-suspended in prf RPMI 1640 with 1% FCS. These cells were then illuminated with a 1000W Quartz Halogen Lamp with IR and bandpass dichroic filters to allow light between 400 nm-700 nm, at a dose rate of 16 mW/cm^2 at 695 nm. The RIF tumor cells were grown in alpha-DMEM with 10% fetal calf serum, penicillin and streptomycin. Cells were maintained in 5% CO2, 95% air and 100% humidity. For determining the PDT efficacy, these cells were plated in 96-well plates and a density of 1×10^4 cells well in complete media. After overnight incubation to allow the cells to attach the photosensitizers 14 were individually added at variable concentrations. After a 3 hr incubation in the dark at 37° C., the cells were washed once with PBS, then irradiated with the same light source as above (Molt-4 procedure), and the optimal cell kill was obtained at a concentration of 1.0 μM. After PDT the cells were washed once and placed in complete media and incubated for 48 hrs. […] The 96-well plate was read on a microtiter plate reader (Miles Inc. Titertek Multiscan Plus MK II) at an absorbance of 560 nm. […]

Sequence of Gal-1 (P09382 whole entry): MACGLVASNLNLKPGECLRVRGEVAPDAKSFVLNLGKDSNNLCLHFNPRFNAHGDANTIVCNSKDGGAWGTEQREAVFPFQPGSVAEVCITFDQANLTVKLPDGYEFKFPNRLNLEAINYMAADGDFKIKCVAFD

Row | Structure (SMILES) | IC50 ([1]; ELISA, read-out: I50, inhibition of Gal-1 binding) | in vitro photosensitizing efficacy (in words) ([2]; Molt-4 cells, 2.0 μM, 2a, 3a compared to 1a, 4a compared to 2a and 3a) | effect of free lactose on PDT efficacy of the photosensitizer ([2]; Molt-4 cells, photosensitizer with lactose in a ratio of 1:100, without washing) | cell kill [3] | inhibition at 450 µM ([1]; at 450 μM) | inhibition of Gal-1 binding ([1]; at 450 μM) | effect of the free saccharide on PDT activity of the conjugate [2]
1 | C=C(C=CCO[C@@H]1O[C@H](CO)[C@H](O)[C@H](O)[C@H]1O)CN1C(=O)c2c3nc(cc4[nH]c(cc5nc(cc6[nH]c2c(c6C)C1=O)C(CC)=C5C)c(CC)c4C)C(C)C3CCC(=O)OC (mixture of isomers) [2a, Galactose-Chlorin conjugate Joined with diene linkage] | 114 µM | significant increases in photosensitizing efficacy | complete inhibition in PDT efficacy | 100% | – | – | –
2 | O=C[C@H](O)[C@@H](O)[C@@H](O)[C@H](O)CO [galactose, reference compound] | – | – | – | – | 3% | 3.29% | did not result in any inhibition in PDT activity
3 | OC[C@H]1O[C@@H](O[C@H]2[C@H](O)[C@@H](O)C(O)O[C@@H]2CO)[C@H](O)[C@@H](O)[C@H]1O (some centres unmarked) [lactose, reference compound] | – | – | – | – | – | – | significant decrease in photosensitizing efficacy
